Patent US9974773B2, “Stabilized oxymetazoline formulations and their uses” (Allergan, Inc., priority 2014, dated 2018)
Where “and” joins values, the source holds several entries; their conditions need not be identical. Identical values can stand only once. Counter-ions that a name gives are not always drawn. Like-named read-outs stand apart in the source and are kept apart here.

Columns and labels:
[1] = Plasma oxymetazoline pharmacokinetics after dermal administration; format: in vivo; details: human, topical or ocular, repeated dermal administration, once-daily or twice-daily, read-out: effective half-life (mean), range across groups
Procedure: Blood samples were drawn on days 1 and 28 at predose, 2, 4, 6, 8, 10, and 12 hours after the morning dose throughout the study. Additional trough samples were collected on days 2, 14, and 29. The final pharmacokinetic sample was collected on day 35 after all assessments were completed. Plasma was analyzed for oxymetazoline concentrations using a validated liquid chromatography-tandem mass spectrometry method with a lower limit of quantification of 10 pg/mL.
Noncompartmental analysis was performed to determine the maximum observed plasma concentration (Cmax), corresponding time to reach maximum observed plasma concentration (Tmax), area under the plasma concentration-time curve from time 0 to time t (AUC0-t), accumulation ratio (R0), and effective half-life (Teff) of oxymetazoline in plasma. These parameters were calculated, whenever possible. […]
At the selected timepoints, approximately 6 mL of blood was collected into prelabeled K2EDTA lavender top blood collection tubes and gently inverted at least 10 times to ensure adequate mixing of blood and anticoagulant. […] A minimum of 1.0 mL of the harvested plasma was transferred into 2 prelabeled cryovials and stored at −20° C. or below until analyzed. The samples were analyzed using a validated high performance liquid chromatography-tandem mass spectrometry (LC-MS/MS) method with a lower limit of quantitation (LLOQ) of 10 pg/mL. […]

[2] = test system: patients with moderate to severe facial erythema associated with rosacea; format: in vivo; details: for Discontinued: Adverse Event: mITT
Procedure: An adverse event could therefore be any unfavorable and unintended sign (including an abnormal laboratory finding), symptom, or disease temporally associated with the use of a medicinal (investigational) product, whether or not related to the medicinal (investigational) product. In addition, during the screening period, adverse events were assessed regardless of the administration of a pharmaceutical product.
A clinical determination was made of the intensity of an adverse event. The severity assessment for a clinical adverse event was completed using the following definitions as guidelines:
A determination was made of the relationship (if any) between an adverse event and the study drug or study procedure, as applicable. A causal relationship was present if a determination was made that there was a reasonable possibility that the adverse event may have been caused by the drug or study procedure.
Adverse events were coded using preferred terms and primary System Organ Class (SOC) from the Medical Dictionary for Regulatory Activities (MedDRA), version 15.1. Adverse events were collected both for the screening/baseline period (which were referred to as pretreatment adverse events [PTAEs]) and for the study period after treatment was initiated (which were referred to as postbaseline adverse events; ie, adverse events with start date from study day 1 through study exit). A treatment emergent adverse event (TEAE) was defined a postbaseline adverse event where there was no PTAE of the same MedDRA preferred term or the maximum severity during the postbaseline period was more severe than the maximal severity of any PTAE of the same MedDRA preferred term.
For each preferred term, the incidence of TEAEs was presented and summarized on a per-patient basis as follows: • by preferred term in descending order of incidence rate • by primary SOC in alphabetical order, and preferred term • by primary SOC in alphabetical order, preferred term, and severity (maximum severity)
The maximum severity of a TEAE experienced by a patient was determined by the most severe rating recorded on the eCRF for the patient's given TEAE. The incidence of TEAEs was provided for all TEAEs regardless of causality and for treatment-related TEAEs.

[3] = test system: patients with moderate to severe facial erythema associated with rosacea; assay: Facial dermal tolerability assessment; format: in vivo, human
Procedure: Facial dermal tolerability assessment included the investigator's assessments (dryness and scaling of the treatment area) and the patient's assessments (stinging/burning and pruritus [itching] of skin in the application area) as described below:
Facial dermal tolerability assessment were evaluated by investigators and patients on days 1 (pre-dose, hours 1, 2, 4, 6, 8, 10, and 12), 2 (predose), 14 (predose, hours 1, 2, 4, 6, 8, 10, and 12), 28 (pre-dose, hours 1, 2, 4, 6, 8, 10, and 12), 35, and 56. Investigator's assessments included dryness and scaling and patient's assessment included stinging/burning, and pruritus; each had 4-point scales: 0=none, 1=mild, 2=moderate, 3=severe.
The number and percent of patients with at least a 1 severity increase (worsening) from baseline for 1 or more visits was generated by treatment group for day 1, day 14, day 28, and from day 1 through day 28. Raw values were summarized using shift tables and frequency distributions by treatment group. In addition, analyses of raw values and change from baseline at post-baseline timepoints and visits were performed using descriptive statistics. Baseline was the pre-dose assessment on day 1.

[4] = all oxymetazoline-treated patients

## Cc1cc(C(C)(C)C)c(O)c(C)c1CC1=NCCN1 [Oxy, oxymetazoline hydrochloride]
[1]
  half-life: 18 to 28 h
[2]; BID
  Discontinued: Adverse Event: 6 (4.4) Number (%) of Patients
[2]; QD
  Discontinued: Adverse Event: 2 (1.5) Number (%) of Patients
[2]; all Oxy-treated patients
  patients who discontinued due to treatment-related application site adverse events: Seven and 7 patients
  patients with application site acne (TEAE): 1.50%
  patients with contact dermatitis (TEAE): 2.6%
[2]; all Oxy-treated patients, 7 severe events
  patients with severe treatment-related application site events: 3 patients
[2]; [4]
  patients who discontinued the study due to TEAEs: 8 patients
  patients with headache (TEAE): 4.9%
  patients with treatment-related application site adverse events: 28 patients
[2]; once-daily dosing
  patients with TEAEs: 33.8%
  patients with adverse events during the posttreatment period: 8.3%
  patients with adverse events during the treatment period: 28.6%
  patients with treatment-related TEAEs: 9.8%
[2]; once-daily group
  patients with discontinuation from the study due to adverse events: 1.5%
[2]; once-daily treatment groups
  patients who discontinued the study: 3.0%
[2]; twice-daily dosing
  patients with TEAEs: 32.6%
  patients with adverse events during the posttreatment period: 7.4%
  patients with adverse events during the treatment period: 26.7%
  patients with treatment-related TEAEs: 12.6%
[2]; twice-daily group
  patients who discontinued the study due to adverse events: 4.4%
[2]; twice-daily treatment groups
  patients who discontinued the study: 6.7%
[3]; once-daily, day 1
  patients with worsening of stinging/burning at the application site: 12.8%
[3]; once-daily, day 14
  patients with worsening of stinging/burning at the application site: 12.0%
[3]; once-daily, day 28
  patients with worsening of stinging/burning at the application site: 6.0%
[3]; twice-daily, day 1
  patients with worsening of stinging/burning at the application site: 10.4%
[3]; twice-daily, day 14
  patients with worsening of stinging/burning at the application site: 8.9%
[3]; twice-daily, day 28
  patients with worsening of stinging/burning at the application site: 1.5%
